Here are results for two molecules from ChEMBL document CHEMBL1158837, “Cyclohexadepsipeptides from the insect pathogenic fungus Hirsutella nivea BCC 2594” (J Nat Prod, 2005).

SMILES strings stand for the structures. ≈ marks a conversion by molar mass, not a printed value. Calls of active or inactive are those of the source. The calls are words filed in the database; no cut-off is given here. Square brackets hold non-standard residues; d marks the D form. Peptide text beside a SMILES is read from it. Hica(2S) = CC(C)C[C@H](O)C(=O)O; NMeL = CN[C@@H](CC(C)C)C(=O)O; Hiv = CC(C)[C@H](O)C(=O)O

Data set [1] deals with Plasmodium falciparum. In words: Antimalarial activity against multidrug-resistant Plasmodium falciparum K1 at 20 ug/ml after 42 hrs as reduced [3H]hypoxanthine uptake. The format is functional, organism-based.
Data set [2] has as its system Vero. In words: Cytotoxicity against african green monkey Vero cells at 50 ug/ml by SRB assay. The format is cell-based. Particulars: chlorocebus sabaeus.
Data set [3] has as its system Mycobacterium tuberculosis. In words: Antitubercular activity against Mycobacterium tuberculosis H37Ra after 4 days by microplate alamar blue assay. Particulars: 96 h. The format is functional.
In data set [4] the test system is Plasmodium falciparum. In words: Antimalarial activity against multidrug-resistant Plasmodium falciparum K1 after 42 hrs by [3H]hypoxanthine uptake. The format is functional, organism-based.

Take `CC(C)C[C@@H]1OC(=O)[C@H](C(C)C)OC(=O)[C@H](CO)NC(=O)[C@H]([C@@H](C)O)NC(=O)[C@H](CC(C)C)N(C)C(=O)[C@H](Cc2ccccc2)NC1=O` [HIRSUTATIN A] (HELM PEPTIDE1{F.[meL].T.S.[CC(C)[C@H](O[*:1])C(=O)[*:2]].[CC(C)C[C@H](O[*:1])C(=O)[*:2]]}$PEPTIDE1,PEPTIDE1,1:R1-6:R2$$$V2.0): the result in data set [1] was inactive. The Activity entry in data set [2] is given as “Non-toxic”. In addition, in data set [3], the MIC (as a rule, the lowest concentration found to suppress growth) came to 50 µg/mL (≈ 73.9 µM).

In the case of `COc1ccc(C[C@@H]2NC(=O)[C@H](CC(C)C)OC(=O)[C@H](C(C)C)OC(=O)[C@H](CO)NC(=O)[C@H]([C@@H](C)O)NC(=O)[C@H](CC(C)C)N(C)C2=O)cc1` [HIRSUTATIN B] (cyclo([Hica(2S)]Y(Me)[NMeL]TS[Hiv])), the Activity result in data set [2] is listed as “Non-toxic”. For the same molecule, the IC50 (usually the midpoint of a concentration-inhibition curve) in data set [4] was 5.8 µg/mL (≈ 8.21 µM). Inhibition of growth in data set [3] (MIC) required 50 µg/mL (≈ 70.7 µM).
